According to patent US10167300B2, “Metalloenzyme inhibitor compounds as fungicides” (priority 2014, dated 2019):
Like-named read-outs stand apart in the source and are kept apart here.

Columns and labels:
Format in all cases: in vivo, Mycosphaerella graminicola on wheat plants (variety Yuma)
[1] = Type B (low volume, EC formulation, track sprayer 200 L/ha) assay, leaf blotch of wheat, SEPTTR field isolate (FI SEPTTR); settings: Zymoseptoria tritici, 72 h, 100 g/ha
Procedure, shortened: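 Wheat seedlings (Yuma, first leaf emerged) sprayed with acetone/Triton X-100 solutions (Type A) or 10% EC diluted in 0.1% Trycol at 200 L/ha (Type B), inoculated before or after spraying. Inoculated plants held 3 days at 20 °C, 100% RH, then greenhouse; % disease control from severity versus untreated plants.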

[2] = test system: Mycosphaerella graminicola; Anamorph: Septoria tritici; Bayer Code SEPTTR (standard laboratory isolate, SI SEPTTR); test: Type A (high volume) assay, leaf blotch of wheat, standard laboratory SEPTTR isolate (SI SEPTTR); settings: Zymoseptoria tritici, standard laboratory isolate, high volume, 50 ppm, wheat (Yuma)
Description: (§1) Example A: Evaluation of Fungicidal Activity: Leaf Blotch of Wheat (Mycosphaerella graminicola; Anamorph: Septoria tritici; Bayer Code SEPTTR)
(§2) For Type A assays, technical grades of the experimental fungicides in Table 4 below were dissolved in acetone, and then mixed with nine volumes of water containing 110 ppm Triton X-100. The fungicide solutions were applied onto wheat seedlings using an automated booth sprayer. For Type B assays, emulsifiable concentrate (EC) formulations of technical grades of the experimental fungicides in Table 4 below were prepared at 10% (w/v), and then mixed with 150 volumes of 0.1% Trycol 5941. These solutions were applied onto wheat seedlings using an automated track sprayer at 200 L/ha. All sprayed plants were allowed to air dry prior to further handling.
(§3) Wheat plants (variety Yuma) were grown from seed in a greenhouse in 50% mineral soil/50% soil-less Metro mix until the first leaf was fully emerged, with 7-10 seedlings per pot. Prior to or after application of experimental fungicides, plants were inoculated either with spores of a standard laboratory SEPTTR isolate (SI SEPTTR) or with spores from a SEPTTR field isolate collected from Wellsbourne, England in 2012 (FI SEPTTR). After inoculation the plants were kept for 3 days at 20° C. in 100% relative humidity (one day in a dark dew chamber followed by two days in a lighted dew chamber). Plants were then transferred to a 20° C. greenhouse for disease development. When disease symptoms were fully expressed on untreated plants, infection levels on treated plants were assessed on a scale of 0 to 100 percent disease severity. Percent disease control was calculated using the ratio of disease severity on treated plants relative to untreated plants.

[3] = test system: Mycosphaerella graminicola; Anamorph: Septoria tritici; Bayer Code SEPTTR (standard laboratory isolate, SI SEPTTR); test: Type B (low volume, EC formulation, track sprayer 200 L/ha) assay, leaf blotch of wheat, standard laboratory SEPTTR isolate (SI SEPTTR); settings: Zymoseptoria tritici, 72 h, 100 g/ha
Description: as §1, §2, §3

[4] = field isolate, low volume EC, 3 Day Curative, wheat (Yuma), read-out: Disease Control, FI SEPTTR Type B Assay (100 g/ha) 3 DC
[5] = field isolate, low volume EC, 3 Day Protectant, wheat (Yuma), read-out: Disease Control, FI SEPTTR Type B Assay (100 g/ha) 3 DP
[6] = 24 h, 1 Day Protectant, read-out: Disease Control, SI SEPTTR Type A Assay (50 ppm) 1 DP
[7] = 72 h, 3 Day Curative, read-out: Disease Control, SI SEPTTR Type A Assay (50 ppm) 3 DC
[8] = standard laboratory isolate, low volume EC, 3 Day Curative, wheat (Yuma), read-out: Disease Control, SI SEPTTR Type B Assay (100 g/ha) 3 DC
[9] = standard laboratory isolate, low volume EC, 3 Day Protectant, wheat (Yuma), read-out: Disease Control, SI SEPTTR Type B Assay (100 g/ha) 3 DP

SMILES | pest or weed control at 100 g/ha [1, 4] [%] | pest or weed control at 100 g/ha [1, 5] [%] | pest or weed control at 50 ppm [2, 6] [%] | pest or weed control at 50 ppm [2, 7] [%] | pest or weed control at 100 g/ha [3, 8] [%] | pest or weed control at 100 g/ha [3, 9] [%] | pest or weed control at 100 g/ha ([1]; SEPTTR field isolate, low volume Type B assay, 3 Day Curative, wheat leaf blotch, read-out: Disease Control, FI SEPTTR Type B Assay (100 g/ha) 3 DC) [%] | pest or weed control at 100 g/ha ([1]; SEPTTR field isolate, low volume Type B assay, 3 Day Protectant, wheat leaf blotch, read-out: Disease Control, FI SEPTTR Type B Assay (100 g/ha) 3 DP) [%] | pest or weed control at 100 g/ha ([3]; SEPTTR standard laboratory isolate, low volume Type B assay, 3 Day Curative, wheat leaf blotch, read-out: Disease Control, SI SEPTTR Type B Assay (100 g/ha) 3 DC) [%] | pest or weed control at 100 g/ha ([3]; SEPTTR standard laboratory isolate, low volume Type B assay, 3 Day Protectant, wheat leaf blotch, read-out: Disease Control, SI SEPTTR Type B Assay (100 g/ha) 3 DP) [%]
CC(C)C(O)(c1cncnc1)c1ccc(-c2ccc(OCC(F)(F)F)nc2)cn1 (stereo not shown) [Compound 64] | 60 to 79 | 80 to 100 | 80 to 100 | 80 to 100 | 80 to 100 | 80 to 100 |  |  |  | 
Cc1ncncc1C(O)(c1ccc(-c2ccc(OC(F)(F)F)cc2)cn1)C(C)(C)C (stereo not shown) [Compound 118] | 80 to 100 | 80 to 100 | 80 to 100 |  | 80 to 100 | 80 to 100 |  |  |  | 
OC(Cc1ccc(Cl)cc1F)(c1cncnc1)c1ccc(Oc2ccc(Cl)cc2)cn1 (stereo not shown) [Compound 41, 2-(4-chloro-2-fluorophenyl)-1-(5-(4-chlorophenoxy)-pyridin-2-yl)-1-(pyrimidin-5-yl)ethanol] | < 40 | 60 to 79 | 80 to 100 | 80 to 100 | 80 to 100 | 80 to 100 |  |  |  | 
CC(C)(C)C(O)(c1cccnc1)c1ccc(-c2ccc(OC(F)(F)F)cc2)cn1 (stereo not shown) [Compound 80] | 80 to 100 | 80 to 100 | 80 to 100 |  | 80 to 100 | 80 to 100 |  |  |  | 
CC(C)(C)C(O)(c1cncnc1)c1ccc(-c2ccc(OC(F)F)cc2)cn1 (stereo not shown) [Compound 59] | 80 to 100 | 80 to 100 | 80 to 100 | 80 to 100 | 80 to 100 | 80 to 100 |  |  |  | 
OC(c1ccc(-c2ccc(OC(F)(F)F)cc2)cn1)(c1cncs1)C1CC1 (stereo not shown) [Compound 89] | 40 to 59 | 60 to 79 | 80 to 100 |  | 80 to 100 | 80 to 100 |  |  |  | 
CC(C)(C)C(O)(c1cncnc1)c1ccc(-c2ccc(OCC(F)(F)F)cc2)cn1 (stereo not shown) [Compound 120] | 80 to 100 | 60 to 79 | 80 to 100 |  | 80 to 100 | 80 to 100 |  |  |  | 
CSc1ccc(-c2ccc(C(O)(c3cncnc3)C(C)(C)C)nc2)cc1 (stereo not shown) [Compound 98] | 80 to 100 | 80 to 100 | 80 to 100 |  | 80 to 100 | 80 to 100 |  |  |  | 
CC(C)(C)C(O)(c1cncnc1)c1ccc(-c2ccc(OC(F)(F)F)cc2)cn1 (stereo not shown) [Compound 27, 2,2-dimethyl-1-(pyrimidin-5-yl)-1-(5-(4-(trifluoro-methoxy)phenyl)pyridin-2-yl)propan-1-ol] | 80 to 100 | 80 to 100 | 80 to 100 | 80 to 100 | 80 to 100 | 80 to 100 |  |  |  | 
COC(c1cncnc1)(c1ccc(-c2ccc(OC(F)(F)F)cc2)cn1)C(C)(C)C (stereo not shown) [Compound 277, 5-(1-methoxy-2,2-dimethyl-1-(5-(4-(trifluoromethoxy)phenyl)pyridin-2-yl)propyl)pyrimidine] |  |  |  |  |  |  | 80 to 100 | 80 to 100 | 80 to 100 | 80 to 100
Cc1ccc(C(O)(c2ccc(-c3ccc(OC(F)(F)F)cc3)cn2)C(C)(C)C)cn1 (stereo not shown) [Compound 148] | 60 to 79 | < 40 |  |  | 60 to 79 | < 40 |  |  |  | 
Cc1ccncc1C(O)(c1ccc(-c2ccc(OC(F)(F)F)cc2)cn1)C(C)(C)C (stereo not shown) [Compound 149] | 80 to 100 | 60 to 79 |  |  | 80 to 100 | 60 to 79 |  |  |  | 
Cc1ncccc1C(O)(c1ccc(-c2ccc(OC(F)(F)F)cc2)cn1)C(C)(C)C (stereo not shown) [Compound 151] |  |  | 80 to 100 |  | 80 to 100 | 80 to 100 |  |  |  | 
